Experimental findings from publication PMC11087444, “Multi-functionalization of reduced graphene oxide nanosheets for tumor theragnosis: Synthesis, characterization, enzyme assay, in-silico study, radiolabeling and in vivo targeting evaluation” (DARU Journal of Pharmaceutical Sciences, 2023) are described below.

The target of one data set is T1, PARP-1 (Homo sapiens, UniProt P09874).
T1 construct: purchased Trevigen 4690-096-K
The experiment in a line: In vitro PARP inhibition assay (HT F Homogeneous PARP Inhibition Assay Kit). The class given is biochemical. The procedure: Olaparib was used as positive control. Fluorescence values under the condition of excitation wavelength (544 nm) and emission wavelength (590 nm) were measured using a multi-well spectrophotometer (Molecular Devices SpectraMax M5 microplate reader, Careforde, Chicago, USA). Then, the standard curve was drawn and the inhibition rate of each test compound was calculated. IC50 value of each compound was calculated using GraphPad Prism 6 software.

Data set [1] deals with human breast cancer MDA-MB-436 cells. Description: MTT cell proliferation assay, cytotoxicity of compounds 3 and 4a-c. The class given is cell-based. The settings on record: for IC50: Homo sapiens, MTT, BRCA1 deficient MDA-MB-436 cells; for reduction in potency (cytotoxicity): MDA-MB-436, relative to Staurosporine. Here is the method: The cytotoxicity assay was performed at Department of therapeutic chemistry/ National Research Center. cytotoxic activity of target compounds 3, 4a-c was determined via three independent experiments by 3-(4,5-dimethylthiazolyl-2)-2,5-diphenyltetrazolium bromide (MTT) cell proliferation assay against the cell proliferation of human breast cancer MDA-MB-436 cells carrying natural BRCA1 deficient [R].
A general note: Formazan colour is commonly taken as a measure of viable cells.

A short description of data set [2]: Biodistribution of radiolabeled complexes in normal mice. The class given is in vivo, Albino mice.
The test system of data set [3] is solid tumor (Ehrlich Ascites Carcinoma). Description: Biodistribution and tumor targeting in solid tumor-bearing mice. The data set is classed as in vivo, Swiss Albino mice. The procedure: To form a solid tumor, a 0.2 mL of Ehrlich Ascites Carcinoma fluid was administered intramuscularly in the right thigh of female Swiss Albino mice. The animals were well-cared until the tumors became obvious (7- 10 days). The parent tumor line (Ehrlich Ascites Carcinoma) was withdrawn from 7-day-old Swiss Albino donor females and diluted with sterile physiological saline solution to yield 12.5 x 10^6 cells/mL [52].
Biodistribution studies were performed by injecting the solid tumor-bearing mice intravenously with NGO-COOH nanosheets followed by injecting the radiolabeled complexes. The mice were divided into four groups (four mice per group) according to the designated time of dissection. Following the administration of the radiolabeled nanosheets, mice were dissected at 0.5, 1, 2, 4 h post injection (p.i). Blood, solid tumor, and major organs/tissues were collected and wet-weighed. The distribution of the radioactivity in each organ/ fluid was measured ex vivo, the radioactivity in each was detected by a gamma-counter (Perkin Elmer) as presented in Fig. 4. The results were expressed as mean percentage injected dose per gram (%ID/g ± SD).

T1 sequence (P09874 whole entry): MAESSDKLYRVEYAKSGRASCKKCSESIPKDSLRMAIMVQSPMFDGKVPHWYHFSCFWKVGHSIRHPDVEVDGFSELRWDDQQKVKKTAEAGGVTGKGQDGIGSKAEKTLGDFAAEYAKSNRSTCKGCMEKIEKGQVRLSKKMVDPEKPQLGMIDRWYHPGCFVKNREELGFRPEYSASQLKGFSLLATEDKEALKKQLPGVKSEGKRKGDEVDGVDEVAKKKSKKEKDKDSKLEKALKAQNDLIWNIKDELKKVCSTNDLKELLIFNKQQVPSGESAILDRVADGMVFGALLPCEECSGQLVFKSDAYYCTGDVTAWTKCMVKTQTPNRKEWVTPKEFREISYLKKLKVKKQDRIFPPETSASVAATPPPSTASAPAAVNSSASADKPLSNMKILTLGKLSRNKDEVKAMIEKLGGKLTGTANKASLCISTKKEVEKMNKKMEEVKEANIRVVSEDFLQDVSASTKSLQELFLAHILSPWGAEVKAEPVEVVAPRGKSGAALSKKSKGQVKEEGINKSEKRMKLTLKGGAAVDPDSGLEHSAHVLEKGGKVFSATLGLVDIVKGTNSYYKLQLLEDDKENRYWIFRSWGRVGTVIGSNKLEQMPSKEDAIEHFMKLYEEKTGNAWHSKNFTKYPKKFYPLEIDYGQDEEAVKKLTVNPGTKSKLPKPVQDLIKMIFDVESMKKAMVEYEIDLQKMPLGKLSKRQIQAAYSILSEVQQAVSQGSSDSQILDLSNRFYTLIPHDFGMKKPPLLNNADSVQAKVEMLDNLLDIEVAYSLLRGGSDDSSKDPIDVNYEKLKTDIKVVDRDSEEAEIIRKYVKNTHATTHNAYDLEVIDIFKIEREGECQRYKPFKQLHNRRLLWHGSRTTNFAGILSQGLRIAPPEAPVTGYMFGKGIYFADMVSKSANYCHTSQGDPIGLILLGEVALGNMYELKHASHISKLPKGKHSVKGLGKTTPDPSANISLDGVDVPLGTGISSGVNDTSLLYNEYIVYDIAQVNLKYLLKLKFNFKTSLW

For the compound `NNS(=O)(=O)c1ccc2c(=O)[nH]c(=O)[nH]c2c1` [Compound 3, 2,4-dioxo-1,2,3,4-tetrahydroquinazoline-7-sulfonohydrazide], the melting point (usually the temperature of the solid-liquid transition) lay within 268 to 270 °C. Moreover, the half-maximal inhibitory concentration (IC50) (commonly the concentration needed to halve the response being measured) against PARP-1 is 261 nM. Also, the IC50 in data set [1] amounted to 6 nM. In data set [1] (MDA-MB-436, ratio of IC50), the “times more potent than Staurosporine (cytotoxicity)” value was “about 1.6 times”.
`Cc1ccc(NS(=O)(=O)c2ccc3c(=O)[nH]c(=O)[nH]c3c2)cc1` [Compound 4a, 2,4-Dioxo-N-(p-tolyl)-1,2,3,4-tetrahydroquinazoline-7-sulfonamide] came in with a melting point greater than 300 °C. This compound also showed an IC50 against PARP-1 of 436 nM. In data set [1], 50 nM corresponded to half-maximal inhibition (IC50) and the “reduction in potency (cytotoxicity)” value is listed as 5 folds.
Consider `O=C(O)c1ccccc1NS(=O)(=O)c1ccc2c(=O)[nH]c(=O)[nH]c2c1` [Compound 4b, 2-(2,4-Dioxo-1,2,3,4-tetrahydroquinazoline-7-sulfonamido) benzoic acid], for which the melting point was 280 to 282 °C. Further, on PARP-1, the IC50 is 167 nM.
The compound `O=c1[nH]c(=O)c2ccc(S(=O)(=O)Nc3nccs3)cc2[nH]1` [Compound 4c, 2,4-dioxo-N-(thiazol-2-yl)-1,2,3,4-tetrahydroquinazoline-7-sulfonamide] showed a melting point of 265 to 267 °C. At PARP-1, it took 153 nM to reach half-maximal inhibition (IC50). In data set [1], it took 40 nM to reach half-maximal inhibition (IC50) and the “reduction in potency (cytotoxicity)” value is 4 folds.
On to “[^99mTc]Tc-2,4-dioxo-1,2,3,4-tetrahydroquinazoline-7-sulfonohydrazide [^99mTc-3]”, for which the blood uptake in data set [2] (normal mice, i.v., 0.5 h p.i.) was found to be 10.5 ± 1.4 %ID/g; in data set [2] (normal mice, i.v., 4 h p.i.), 3.2 ± 0.4 %ID/g. Moreover, the liver uptake in data set [2] (normal mice, i.v., 0.5 h p.i.) is 11 ± 1.7 %ID/g; in data set [2] (normal mice, i.v., 1 h p.i.), 12 ± 1.2 %ID/g; in data set [2] (normal mice, i.v., 4 h p.i.), 8 ± 1.3 %ID/g. Besides, the tumor uptake in data set [3] (solid tumor-bearing mice, i.v., 0.5 h p.i.) is recorded as 5.0 ± 0.40 %ID/g; in data set [3] (solid tumor-bearing mice, i.v., 2 h p.i.), 6.5 ± 0.3 %ID/g; in data set [3] (solid tumor-bearing mice, i.v., 4 h p.i.) it was 6.0 ± 0.4 %ID/g.
In the case of “[^99mTc]Tc-NGO-COOH-2,4-dioxo-1,2,3,4-tetrahydroquinazoline-7-sulfonohydrazide [^99mTc-NGO-COOH-3]”, the blood uptake in data set [2] (mouse, in vivo, iv, 0.5 h) was 5.0 ± 0.5 %ID/g; in data set [2] (mouse, in vivo, iv, 4 h), 1 ± 0.1 %ID/g. The liver uptake in data set [2] (mouse, in vivo, iv, 0.5 h) stood at 7.0 ± 0.7 %ID/g; in data set [2] (mouse, in vivo, iv, 4 h) it was 15.0 ± 1.5 %ID/g. The “target/nontarget (T/NT) ratio, tumor muscle to contralateral normal muscle” value in data set [3] (mouse, in vivo, iv) amounted to 9.0. For the same compound, the tumor uptake in data set [3] (mouse, in vivo, iv, 0.5 h) is 7.0 ± 0.70 %ID/g; in data set [3] (mouse, in vivo, iv, 1 h), 12.0 ± 1.2 %ID/g.
